The test system of assay [1] is C57/B1 mice. The experiment in a line: mouse tail suspension test (TST). It is filed as in vivo. The settings on record: for immobility: given with vehicle; for duration of immobility: monotherapy, doses 5-20 mg/kg IP.
The subject of assay [2] is C57/B1 mice. In words: locomotor activity test (actometers, 6 min). It is filed as in vivo, mouse.
The subject of a further assay is 5-HT3 receptor. The note with it: cited from earlier work; for inhibition of 5HT3-mediated current: memantine: native N1E-115 and heterologous HEK-293 cells.
The target in another assay is T1, NMDA receptor (Rattus norvegicus, UniProt P35439).
T1 construct: NMDA receptor-mediated currents (in rat hippocampal slices); from tissue; host or cells: rat hippocampal slices
The settings on record: rat hippocampal slices; cited from earlier work.

Entries after “also recorded” stand apart in the source; their conditions may differ.

On to `CNCCC(Oc1ccc(C(F)(F)F)cc1)c1ccccc1` (stereo not shown) [FLU, fluoxetine], for which the immobility result in the assay on C57/B1 mice [1] (20 mg/kg IP) is “decreased immobility”. Moreover, the duration of immobility result in the assay with C57/B1 mice [1] is “decrease in the duration of immobility”. Further, the locomotor activity result in the assay on C57/B1 mice [2] (mouse, in vivo) is “did not change locomotor activity; also recorded: generally did not affect locomotor activity”.

Regarding `CN(C)CCCN1c2ccccc2CCc2ccccc21` [IMI, imipramine], the immobility result with C57/B1 mice [1] (20 mg/kg IP) was “decreased immobility”. Further, the duration of immobility result in the assay with C57/B1 mice [1] is “decrease in the duration of immobility”. Further, the locomotor activity result was “decreased it; also recorded: decreased locomotor activity” in the assay on C57/B1 mice [2] (mouse, in vivo) and “decreased locomotor activity” in the assay on C57/B1 mice [2] (mouse, in vivo, ip, 20 mg/kg).

For the molecule `CC1(C)CC(C)(C)CC(C)(N)C1` [NER, 1-amino-1,3,3,5,5-pentamethylcyclohexane], the immobility result in the assay on C57/B1 mice [1] (2.5 mg/kg IP, 2.5 mg/kg) is “increased immobility; also recorded: without effect on immobility time”; in the assay with C57/B1 mice [1] (20 mg/kg IP, 20 mg/kg), “decreased immobility”. Also, the duration of immobility entry with C57/B1 mice [1] is “decreased the duration of immobility”. Further, the locomotor activity entry in the assay with C57/B1 mice [2] (given with vehicle (combination study), 20 mg/kg IP) is recorded as “increased locomotor activity”; in the assay on C57/B1 mice [2] (monotherapy, doses 5-20 mg/kg IP) it was “increased locomotor activity; also recorded: consistent locomotor stimulation”. The “inhibition of 5HT3-mediated current” value in the assay with 5-HT3 receptor is reported as “inhibit”.

For the molecule `COc1ccc(C(CN(C)C)C2(O)CCCCC2)cc1` (stereo not shown) [VEN, venlafaxine], the immobility result in the assay on C57/B1 mice [1] (5 mg/kg IP) and in the assay on C57/B1 mice [1] (20 mg/kg IP) was “decreased immobility” each time. Also, the duration of immobility entry in the assay on C57/B1 mice [1] is recorded as “decrease in the duration of immobility”. Further, the locomotor activity result is recorded as “increased locomotor activity; also recorded: also observed for the dose of 20 mg/kg in one of two studies” with C57/B1 mice [2] (given with vehicle (combination study), 20 mg/kg IP, 20 mg/kg); “without effect” in the assay with C57/B1 mice [2] (given with vehicle, 5 mg/kg IP, 5 mg/kg); “increased it; also recorded: stimulated locomotion” in the assay on C57/B1 mice [2] (monotherapy, 40 mg/kg IP, 40 mg/kg).

Regarding `CC12CC3CC(C)(C1)CC(N)(C3)C2` [memantine, 1-amino-3,5-dimethyl adamantane], the “inhibition of NMDA receptor-mediated currents” value on NMDA receptor was “inhibit”. Further, in the assay on 5-HT3 receptor (N1E-115 / HEK-293 cells vs rat hippocampal slices), the “affinity for 5HT3-mediated current relative to NMDA receptor-mediated currents” value was “approximately equal affinity”. Moreover, the “inhibition of 5HT3-mediated current” value in the assay on 5-HT3 receptor is “inhibit”.

The values are drawn from patent publication US20050014743A1, “Combination of an NMDA receptor antagonist and a selective serotonin reuptake inhibitor for the treatment of depression and other mood disorders” (Forest Laboratories, Inc., priority 2003, published 2005).
